{"source": "ChEMBL document CHEMBL1201862", "about": "“PubChem BioAssay data set” (2004)", "assay_in_all_cases": "growth of human tumour cells (NCI), 48 h", "key": {"786-0": {"test_system": "786-0"}, "A498": {"test_system": "A498"}, "A549": {"test_system": "A549"}, "ACHN": {"test_system": "ACHN"}, "CAKI-1": {"test_system": "CAKI-1"}, "CCRF-CEM": {"test_system": "CCRF-CEM"}, "COLO 205": {"test_system": "COLO 205"}, "DLD-1": {"test_system": "DLD-1"}, "DMS-114": {"test_system": "DMS-114"}, "DMS-273": {"test_system": "DMS-273"}, "EKVX": {"test_system": "EKVX"}, "HCC 2998": {"test_system": "HCC 2998"}, "HCT-116": {"test_system": "HCT-116"}, "HCT-15": {"test_system": "HCT-15"}, "HL-60": {"test_system": "HL-60"}, "HOP-18": {"test_system": "HOP-18"}, "HOP-62": {"test_system": "HOP-62"}, "HOP-92": {"test_system": "HOP-92"}, "HT-29": {"test_system": "HT-29"}, "IGROV-1": {"test_system": "IGROV-1"}, "K562": {"test_system": "K562"}, "KM-20L2": {"test_system": "KM-20L2"}, "KM12": {"test_system": "KM12"}, "LXFL 529": {"test_system": "LXFL 529"}, "M14": {"test_system": "M14"}, "M19-MEL": {"test_system": "M19-MEL"}, "MOLT-4": {"test_system": "MOLT-4"}, "Malme-3M": {"test_system": "Malme-3M"}, "NCI-H226": {"test_system": "NCI-H226"}, "NCI-H23": {"test_system": "NCI-H23"}, "NCI-H460": {"test_system": "NCI-H460"}, "NCI-H522": {"test_system": "NCI-H522"}, "OVCAR-3": {"test_system": "OVCAR-3"}, "OVCAR-4": {"test_system": "OVCAR-4"}, "OVCAR-5": {"test_system": "OVCAR-5"}, "OVCAR-8": {"test_system": "OVCAR-8"}, "RPMI-8226": {"test_system": "RPMI-8226"}, "RXF 393": {"test_system": "RXF 393"}, "RXF 631": {"test_system": "RXF 631"}, "SF-268": {"test_system": "SF-268"}, "SF-295": {"test_system": "SF-295"}, "SF-539": {"test_system": "SF-539"}, "SK-MEL-28": {"test_system": "SK-MEL-28"}, "SK-MEL-2": {"test_system": "SK-MEL-2"}, "SK-MEL-5": {"test_system": "SK-MEL-5"}, "SK-OV-3": {"test_system": "SK-OV-3"}, "SN12C": {"test_system": "SN12C"}, "SNB-19": {"test_system": "SNB-19"}, "SNB-75": {"test_system": "SNB-75"}, "SNB-78": {"test_system": "SNB-78"}, "SR": {"test_system": "SR"}, "SW-620": {"test_system": "SW-620"}, "TK-10": {"test_system": "TK-10"}, "U-251": {"test_system": "U-251"}, "UACC-257": {"test_system": "UACC-257"}, "UACC-62": {"test_system": "UACC-62"}, "UO-31": {"test_system": "UO-31"}, "XF498": {"test_system": "XF498"}}, "note": "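Results reflect a 48-hour exposure of cells in 96-well plates to compound at five concentrations. Here, GI50 denotes the concentration required for 50% inhibition of growth.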 Calls of active or inactive are those of the source. No stated cut-off is given here; in the data, active = GI50 up to about 1.1 µM and inactive = higher.", "data": [{"smiles": "CC(=O)CC(N)=O", "values": [{"measurement": "GI50", "setting": "786-0", "value": "> 100 µM (inactive)"}, {"measurement": "GI50", "setting": "A498", "value": "> 100 µM (inactive)"}, {"measurement": "GI50", "setting": "A549", "value": "> 100 µM (inactive)"}, {"measurement": "GI50", "setting": "ACHN", "value": "> 100 µM (inactive)"}, {"measurement": "GI50", "setting": "CAKI-1", "value": "> 100 µM (inactive)"}, {"measurement": "GI50", "setting": "CCRF-CEM", "value": "> 100 µM (inactive)"}, {"measurement": "GI50", "setting": "COLO 205", "value": "> 100 µM (inactive)"}, {"measurement": "GI50", "setting": "DLD-1", "value": "> 100 µM (inactive)"}, {"measurement": "GI50", "setting": "DMS-114", "value": "> 100 µM (inactive)"}, {"measurement": "GI50", "setting": "DMS-273", "value": "> 100 µM (inactive)"}, {"measurement": "GI50", "setting": "EKVX", "value": "> 100 µM (inactive)"}, {"measurement": "GI50", "setting": "HCC 2998", "value": "> 100 µM (inactive)"}, {"measurement": "GI50", "setting": "HCT-116", "value": "> 100 µM (inactive)"}, {"measurement": "GI50", "setting": "HCT-15", "value": "> 100", "unit": "µM"}, {"measurement": "GI50", "setting": "HL-60", "value": "> 100 µM (inactive)"}, {"measurement": "GI50", "setting": "HOP-18", "value": "> 100 µM (inactive)"}, {"measurement": "GI50", "setting": "HOP-62", "value": "> 100 µM (inactive)"}, {"measurement": "GI50", "setting": "HOP-92", "value": "> 100 µM (inactive)"}, {"measurement": "GI50", "setting": "HT-29", "value": "> 100 µM (inactive)"}, {"measurement": "GI50", "setting": "IGROV-1", "value": "> 100 µM (inactive)"}, {"measurement": "GI50", "setting": "K562", "value": "> 100 µM (inactive)"}, {"measurement": "GI50", "setting": "KM-20L2", "value": "> 100 µM (inactive)"}, {"measurement": "GI50", "setting": "KM12", "value": "> 100 µM (inactive)"}, {"measurement": "GI50", "setting": "LXFL 529", "value": "> 100 µM (inactive)"}, {"measurement": "GI50", "setting": "M14", "value": "> 100 µM (inactive)"}, {"measurement": "GI50", "setting": "M19-MEL", "value": "> 100 µM (inactive)"}, {"measurement": "GI50", "setting": "MOLT-4", "value": "> 100 µM (inactive)"}, {"measurement": "GI50", "setting": "Malme-3M", "value": "> 100 µM (inactive)"}, {"measurement": "GI50", "setting": "NCI-H226", "value": "> 100 µM (inactive)"}, {"measurement": "GI50", "setting": "NCI-H23", "value": "> 100 µM (inactive)"}, {"measurement": "GI50", "setting": "NCI-H460", "value": "> 100 µM (inactive)"}, {"measurement": "GI50", "setting": "NCI-H522", "value": "> 100 µM (inactive)"}, {"measurement": "GI50", "setting": "OVCAR-3", "value": "> 100 µM (inactive)"}, {"measurement": "GI50", "setting": "OVCAR-4", "value": "> 100 µM (inactive)"}, {"measurement": "GI50", "setting": "OVCAR-5", "value": "> 100 µM (inactive)"}, {"measurement": "GI50", "setting": "OVCAR-8", "value": "> 100 µM (inactive)"}, {"measurement": "GI50", "setting": "RPMI-8226", "value": "> 100 µM (inactive)"}, {"measurement": "GI50", "setting": "RXF 393", "value": "> 100 µM (inactive)"}, {"measurement": "GI50", "setting": "RXF 631", "value": "> 100 µM (inactive)"}, {"measurement": "GI50", "setting": "SF-268", "value": "> 100 µM (inactive)"}, {"measurement": "GI50", "setting": "SF-295", "value": "> 100 µM (inactive)"}, {"measurement": "GI50", "setting": "SF-539", "value": "> 100 µM (inactive)"}, {"measurement": "GI50", "setting": "SK-MEL-28", "value": "> 100 µM (inactive)"}, {"measurement": "GI50", "setting": "SK-MEL-2", "value": "> 100 µM (inactive)"}, {"measurement": "GI50", "setting": "SK-MEL-5", "value": "> 100 µM (inactive)"}, {"measurement": "GI50", "setting": "SK-OV-3", "value": "> 100 µM (inactive)"}, {"measurement": "GI50", "setting": "SN12C", "value": "> 100 µM (inactive)"}, {"measurement": "GI50", "setting": "SNB-19", "value": "> 100 µM (inactive)"}, {"measurement": "GI50", "setting": "SNB-75", "value": "> 100 µM (inactive)"}, {"measurement": "GI50", "setting": "SNB-78", "value": "> 100 µM (inactive)"}, {"measurement": "GI50", "setting": "SR", "value": "> 100 µM (inactive)"}, {"measurement": "GI50", "setting": "SW-620", "value": "> 100 µM (inactive)"}, {"measurement": "GI50", "setting": "TK-10", "value": "> 100 µM (inactive)"}, {"measurement": "GI50", "setting": "U-251", "value": "> 100 µM (inactive)"}, {"measurement": "GI50", "setting": "UACC-257", "value": "> 100 µM (inactive)"}, {"measurement": "GI50", "setting": "UACC-62", "value": "> 100 µM (inactive)"}, {"measurement": "GI50", "setting": "UO-31", "value": "> 100 µM (inactive)"}, {"measurement": "GI50", "setting": "XF498", "value": "> 100 µM (inactive)"}]}]}
